Data as given in ChEMBL document CHEMBL5154935, “Design, Synthesis, and Biological Evaluation of Novel Evodiamine Derivatives as Potential Antihepatocellular Carcinoma Agents” (J Med Chem, 2022).
The source made the active and inactive calls. The calls are words filed in the database; no cut-off is given here.

Experiments:
Huh-7 [1] = experiment: Antiproliferative activity against human Huh-7 cells treated for 72 hrs by MTT assay; type: functional, cell-based; conditions: Huh-7, 72 h
[2] = Antiproliferative activity against human L02 cells treated for 72 hrs by MTT assay; type: toxicity, cell-based
SK-HEP1 [3] = experiment: Antiproliferative activity against human SK-Hep1 cells assessed as inhibition of cell viability by MTT assay; type: functional, cell-based; conditions: time 24-72 hrs, TDE = time-dependent effect
HCC [4] = experiment: Inhibition of clonogenicity in human HCC cells assessed as decrease in number of colonies at 3 to 18 nM incubated for 1 to 2 weeks by optical microscopy analysis; type: functional, cell-based; conditions: dose 3-18 nM, time 1-2 weeks
HCC [5] = experiment: Inhibition of cell proliferation of human HCC cells treated for 24 hrs by EdU staining based fluorescence microscopy assay; type: functional; conditions: dose 3-18 nM, DDE = dose-dependent effect
SK-HEP1 [6] = experiment: Induction of cell cycle arrest in human SK-Hep1 cells assessed as accumulation at S phase at 80 nM treated for 24 hrs by PI staining based flow cytometry (reference value: 24.98 %); type: functional
Huh-7 [7] = experiment: Induction of cell cycle arrest in human Huh-7 cells assessed as accumulation at G2 phase at 80 nM treated for 24 hrs by PI staining based flow cytometry (reference value: 15.90 %); type: functional
Huh-7 [8] = experiment: Induction of cell cycle arrest in human Huh-7 cells assessed as accumulation at S phase at 80 nM treated for 24 hrs by PI staining based flow cytometry (reference value: 23.33 %); type: functional
Huh-7 [9] = experiment: Induction of cell cycle arrest in human Huh-7 cells assessed as accumulation at G2 phase at 40 nM treated for 24 hrs by PI staining based flow cytometry (reference value: 15.90 %); type: functional
SK-HEP1 [10] = experiment: Induction of cell cycle arrest in human SK-Hep1 cells assessed as accumulation at G1 phase at 40 nM treated for 24 hrs by PI staining based flow cytometry (reference value: 58.47 %); type: functional
SK-HEP1 [11] = experiment: Induction of cell cycle arrest in human SK-Hep1 cells assessed as accumulation at G1 phase at 10 nM treated for 24 hrs by PI staining based flow cytometry (reference value: 58.47 %); type: functional
SK-HEP1 [12] = experiment: Induction of cell cycle arrest in human SK-Hep1 cells assessed as accumulation at S phase at 10 nM treated for 24 hrs by PI staining based flow cytometry (reference value: 24.98 %); type: functional
Huh-7 [13] = experiment: Induction of apoptosis in human Huh-7 cells assessed as change in cell membrane permeability by measuring blue fluorescence incubated for 24 hrs by Hoechst staining based microscopy; type: functional; conditions: dose 12-60 nM, DDE = dose-dependent effect
SK-HEP1 [14] = experiment: Induction of apoptosis in human SK-Hep1 cells assessed as chromatin agglutination incubated for 24 hrs by Giemsa staining based microscopy; type: functional, cell-based; conditions: dose 12-60 nM, DDE = dose-dependent effect
SK-HEP1 [15] = experiment: Induction of apoptosis in human SK-Hep1 cells assessed as cytoskeleton disintegration incubated for 24 hrs by Giemsa staining based microscopy; type: functional, cell-based; conditions: dose 12-60 nM, DDE = dose-dependent effect
Huh-7 [16] = experiment: Induction of apoptosis in human Huh-7 cells assessed as viable cells at 10 nM incubated for 24 hrs by annexin V-FITC/PI staining flow cytometry (reference value: 97.3 %); type: functional; conditions: read-out: Activity
Huh-7 [17] = experiment: Induction of apoptosis in human Huh-7 cells assessed as late apoptotic cells at 10 nM incubated for 24 hrs by annexin V-FITC/PI staining flow cytometry (reference value: 1.33 %); type: functional
Huh-7 [18] = experiment: Induction of apoptosis in human Huh-7 cells assessed as necrotic cells at 10 nM incubated for 24 hrs by annexin V-FITC/PI staining flow cytometry (reference value: 1.08 %); type: functional
Huh-7 [19] = experiment: Induction of apoptosis in human Huh-7 cells assessed as viable cells at 40 nM incubated for 24 hrs by annexin V-FITC/PI staining flow cytometry (reference value: 97.3 %); type: functional; conditions: read-out: Activity
Huh-7 [20] = experiment: Induction of apoptosis in human Huh-7 cells assessed as necrotic cells at 80 nM incubated for 24 hrs by annexin V-FITC/PI staining flow cytometry (reference value: 1.08 %); type: functional
SK-HEP1 [21] = experiment: Induction of apoptosis in human SK-Hep1 cells assessed as viable cells at 10 nM incubated for 24 hrs by annexin V-FITC/PI staining flow cytometry (reference value: 97.8 %); type: functional; conditions: read-out: Activity
SK-HEP1 [22] = experiment: Induction of apoptosis in human SK-Hep1 cells assessed as early apoptotic cells at 40 nM incubated for 24 hrs by annexin V-FITC/PI staining flow cytometry (reference value: 0.30 %); type: functional
SK-HEP1 [23] = experiment: Induction of apoptosis in human SK-Hep1 cells assessed as necrotic cells at 40 nM incubated for 24 hrs by annexin V-FITC/PI staining flow cytometry (reference value: 0.73 %); type: functional
SK-HEP1 [24] = experiment: Induction of apoptosis in human SK-Hep1 cells assessed as late apoptotic cells at 80 nM incubated for 24 hrs by annexin V-FITC/PI staining flow cytometry (reference value: 1.13 %); type: functional
SK-HEP1 [25] = experiment: Induction of apoptosis in human SK-Hep1 cells assessed as necrotic cells at 80 nM incubated for 24 hrs by annexin V-FITC/PI staining flow cytometry (reference value: 0.73 %); type: functional
SK-HEP1 [26] = experiment: Induction of mitochondrial membrane potential changes in human SK-Hep1 cells assessed as decrease in TMRE positive cells incubated for 24 hrs by TMRE staining based flow cytometry; type: functional, cell-based; conditions: dose 10-80 nM, DDE = dose-dependent effect
Huh-7 [27] = experiment: Inhibition of cell migration in human Huh-7 cells at 3 to 18 nM incubated for 24 hrs by crystal violet staining based transwell assay; type: functional; conditions: dose 3-18 nM
SK-HEP1 [28] = experiment: Inhibition of cell migration in human SK-HEP1 cells at 3 to 18 nM incubated for 24 hrs by crystal violet staining based transwell assay; type: functional; conditions: dose 3-18 nM
HSC-T6 [29] = experiment: Suppression of TGF-beta-1-stimulated rat HSC-T6 cells activation assessed as reduction in Col-1 levels at 10 to 80 nM preincubated with TGFbeta-1 followed by compound addition and measured after 24 to 48 hrs by ELISA; type: functional, cell-based; conditions: dose 10-80 nM, time 24-48 hrs
HSC-T6 [30] = experiment: Suppression of TGF-beta-1-stimulated rat HSC-T6 cells activation assessed as reduction in Col-1 levels preincubated with TGFbeta-1 followed by compound addition and measured after 24 to 48 hrs by ELISA; type: functional, cell-based; conditions: dose 10-80 nM, time 24-48 hrs, DDE = dose-dependent effect
[31] = Induction of apoptosis in rat HSC-T6 cells assessed as viable cells at 40 nM pretreated with TGFbeta-1 for 1 day followed by compound addition and measured after 24 hrs by flow cytometry (reference value: 97.5 %); type: functional; conditions: read-out: Activity
[32] = Induction of apoptosis in rat HSC-T6 cells assessed as early apoptotic cells at 80 nM pretreated with TGFbeta-1 for 1 day followed by compound addition and measured after 24 hrs by flow cytometry (reference value: 0.17 %); type: functional
SMMC-7721 = experiment: Antiproliferative activity against human SMMC-7721 cells treated for 72 hrs by MTT assay; type: functional, cell-based; conditions: SMMC-7721, 72 h
SK-HEP1 [33] = experiment: Inhibition of cell invasion in human SK-HEP1 cells at 3 to 18 nM incubated for 24 hrs by matrigel based assay; type: functional; conditions: dose 3-18 nM

In the case of `CC(=O)Oc1ccc2[nH]c3c(c2c1)CCN1C(=O)c2cc(F)cc(F)c2N(c2cccc(F)c2)C31` (stereo not drawn), the IC50 (Huh-7 [1]) is reported as 30 nM, the IC50 at 72 h [2] is reported as 950 nM and the Activity (SK-HEP1 [3]) is reported as “Tde”. For the same compound, the inhibition (HCC [4]) was “Active”, the inhibition (HCC [5]) was “Dde” and the Activity (SK-HEP1 [6]) was 3.88%. For the same compound, the Activity (Huh-7 [7]) was 74.38%, the Activity (Huh-7 [8]) was 8.43% and the Activity (Huh-7 [9]) was 50.27%. It also gave an Activity (SK-HEP1 [10]) of 25.35%, an Activity (SK-HEP1 [11]) of 62.52% and an Activity (SK-HEP1 [12]) of 19.4%. For the same compound, the Activity (Huh-7 [13]) was “Dde”, the Activity (SK-HEP1 [14]) was “Dde” and the Activity (SK-HEP1 [15]) was “Dde”. The viability at 0.01 µM (Huh-7 [16]) was 93.8%, the Activity (Huh-7 [17]) was 4.02% and the Activity (Huh-7 [18]) was 1.51%. For the same compound, the viability at 0.04 µM (Huh-7 [19]) was 62.9%, the Activity (Huh-7 [20]) was 9.88% and the viability at 0.01 µM (SK-HEP1 [21]) was 86.7%. For the same compound, the Activity (SK-HEP1 [22]) was 8.25%, the Activity (SK-HEP1 [23]) was 2.44% and the Activity (SK-HEP1 [24]) was 19.5%. For the same compound, the Activity (SK-HEP1 [25]) was 2.63%, the Activity (SK-HEP1 [26]) was “Dde” and the inhibition (Huh-7 [27]) was “Active”. For the same compound, the inhibition (SK-HEP1 [28]) was “Active”, the inhibition (HSC-T6 [29]) was “Active” and the Activity (HSC-T6 [30]) was “Dde”. The viability at 0.04 µM [31] was 85.6%, the Activity [32] was 0.83% and the IC50 (SMMC-7721) was 80 nM. For the same compound, the inhibition (SK-HEP1 [33]) was “Active”.
In the case of `O=C1c2cc(F)cc(F)c2N(c2cccc(F)c2)C2c3[nH]c4ccc(O)cc4c3CCN12` (stereo not drawn), the IC50 (Huh-7 [1]) is reported as 40 nM, the IC50 at 72 h [2] is reported as 780 nM and the Activity (SK-HEP1 [3]) is reported as “Tde”. For the same compound, the inhibition (HCC [4]) was “Active”, the inhibition (HCC [5]) was “Dde” and the Activity (SK-HEP1 [6]) was 4.5%. It also gave an Activity (Huh-7 [7]) of 78.5%, an Activity (Huh-7 [8]) of 10.85% and an Activity (Huh-7 [9]) of 63.75%. The Activity (SK-HEP1 [10]) was 21.83%, the Activity (SK-HEP1 [11]) was 54.93% and the Activity (SK-HEP1 [12]) was 18.42%. The Activity (Huh-7 [13]) was “Dde”, the Activity (SK-HEP1 [14]) was “Dde” and the Activity (SK-HEP1 [15]) was “Dde”. It also gave a viability at 0.01 µM (Huh-7 [16]) of 93.1%, an Activity (Huh-7 [17]) of 4.61% and an Activity (Huh-7 [18]) of 1.53%. For the same compound, the viability at 0.04 µM (Huh-7 [19]) was 79.5%, the Activity (Huh-7 [20]) was 9.82% and the viability at 0.01 µM (SK-HEP1 [21]) was 92.9%. For the same compound, the Activity (SK-HEP1 [22]) was 8.02%, the Activity (SK-HEP1 [23]) was 2.92% and the Activity (SK-HEP1 [24]) was 15.4%. The Activity (SK-HEP1 [25]) was 2.39%, the Activity (SK-HEP1 [26]) was “Dde” and the inhibition (Huh-7 [27]) was “Active”. For the same compound, the inhibition (SK-HEP1 [28]) was “Active”, the inhibition (HSC-T6 [29]) was “Active” and the Activity (HSC-T6 [30]) was “Dde”. The viability at 0.04 µM [31] was 98.3%, the Activity [32] was 0.72% and the IC50 (SMMC-7721) was 90 nM. The inhibition (SK-HEP1 [33]) was “Active”.
